# Measurements: patent US10294202B2, “Pyrrolidinones as herbicides” (FMC Corporation, priority 2013, dated 2019)
# How the values were obtained:
# Test in all cases: Test E preemergence herbicide test
# Set-up in all cases: key: 0 = no effect, 100 = complete control
# [1] = test system: nutsedge, yellow; format: in vivo, Cyperus esculentus
# Excerpt: (§1) Seeds of plant species selected from corn (Zea mays), soybean (Glycine max), velvetleaf (Abutilon theophrasti), lambsquarters (Chenopodium album), wild poinsettia (Euphorbia heterophylla), pigweed, palmer (palmer pigweed, Amaranthus palmeri), waterhemp (common waterhemp, Amaranthus rudis), surinam grass (Brachiaria decumbens), crabgrass, large (large crabgrass, Digitaria sanguinalis), crabgrass, Brazil (Brazilian crabgrass, Digitaria horizontalis), panicum, fall (fall panicum, Panicum dichotomiflorum), foxtail, giant (giant foxtail, Setaria faberii), foxtail, green (green foxtail, Setaria viridis), goosegrass (Eleusine indica), johnsongrass (Sorghum halepense), ragweed (common ragweed, Ambrosia elatior), barnyardgrass (Echinochloa crus-galli), sandbur (southern sandbur, Cenchrus echinatus), arrowleaf […] rhombifolia), ryegrass, Italian (Italian ryegrass, Lolium multiflorum), dayflower, VA (Virginia dayflower, Commelina virginica), field bindweed (Convolvulus arvensis), morningglory (Ipomoea coccinea), nightshade (eastern black nightshade, Solanum ptycanthum), kochia (Kochia scoparia), nutsedge, yellow (yellow nutsedge, Cyperus esculentus), cocklebur (common cocklebur, Xanthium strumarium), smartweed (ladysthumb smartweed, Polygonum Persicaria) and beggarticks (hairy beggarticks, Bidens pilosa), were planted into a silt loam soil and treated preemergence with test chemicals formulated in a non-phytotoxic solvent mixture which included a surfactant. Treated plants and controls were maintained in a greenhouse for 21 days, after which time all species were compared to controls and visually evaluated. Plant response ratings, summarized in Table E, are based on a scale of 0 to 100 where 0 is no effect and 100 is complete control. A dash (-) response means no test result.
# [2] = test system: sandbur; format: in vivo, Cenchrus echinatus
# Summary of the method: (§2)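 Visual injury rating, 0 (no effect) to 100 (complete control), versus controls at 21 days in greenhouse. Preemergence application to seeds planted in silt loam; compound formulated in non-phytotoxic solvent mix plus surfactant.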
# [3] = test system: johnsongrass; format: in vivo, Sorghum halepense
# Summary of the method: as §2
# [4] = test system: arrowleaf sida; format: in vivo, Sida rhombifolia
# Excerpt: as §1
# [5] = test system: foxtail, giant; format: in vivo, Setaria faberii
# Summary of the method: as §2
smiles,measurement,setting,value
O=C1NCC(c2ccc(F)cc2)C1C(=O)Nc1ccccc1F (racemic) [Compound 16],"Plant response rating, Nutsedge, Yellow",[1]; 16 g ai/ha,0
same,"Plant response rating, Nutsedge, Yellow",[1]; 31 g ai/ha,0
same,"Plant response rating, Nutsedge, Yellow",[1]; 62 g ai/ha,0
same,"Plant response rating, Nutsedge, Yellow",[1]; 125 g ai/ha,0
same,"Plant response rating, Nutsedge, Yellow",[1]; 250 g ai/ha,0
same,"Plant response rating, Sandbur",[2]; 16 g ai/ha,0
same,"Plant response rating, Sandbur",[2]; 31 g ai/ha,0
same,"Plant response rating, Sandbur",[2]; 62 g ai/ha,35
same,"Plant response rating, Sandbur",[2]; 125 g ai/ha,70
same,"Plant response rating, Sandbur",[2]; 250 g ai/ha,95
same,"Plant response rating, Johnsongrass",[3]; 16 g ai/ha,0
same,"Plant response rating, Johnsongrass",[3]; 31 g ai/ha,0
same,"Plant response rating, Johnsongrass",[3]; 62 g ai/ha,0
same,"Plant response rating, Johnsongrass",[3]; 125 g ai/ha,0
same,"Plant response rating, Johnsongrass",[3]; 250 g ai/ha,0
same,"Plant response rating, Arrowleaf Sida",[4]; 16 g ai/ha,0
same,"Plant response rating, Arrowleaf Sida",[4]; 31 g ai/ha,0
same,"Plant response rating, Arrowleaf Sida",[4]; 62 g ai/ha,0
same,"Plant response rating, Arrowleaf Sida",[4]; 125 g ai/ha,0
same,"Plant response rating, Arrowleaf Sida",[4]; 250 g ai/ha,0
same,"Plant response rating, Foxtail, Giant",[5]; 16 g ai/ha,0
same,"Plant response rating, Foxtail, Giant",[5]; 31 g ai/ha,0
same,"Plant response rating, Foxtail, Giant",[5]; 62 g ai/ha,15
same,"Plant response rating, Foxtail, Giant",[5]; 125 g ai/ha,25
same,"Plant response rating, Foxtail, Giant",[5]; 250 g ai/ha,95
